For one assay, the system named is A549. Put plainly: Cytotoxicity against human A549 cells. It counts as functional, cell-based.
The subject of the next assay is P388. Put plainly: Cytotoxicity against mouse P388 cells. It counts as functional, cell-based.

This is an account of results in ChEMBL document CHEMBL1157308, “Daphniyunnines A-E, alkaloids from Daphniphyllum yunnanense” (J Nat Prod, 2006).

Broadly, the IC50 is the concentration that inhibits the measured activity by half. Read a high IC50 as lower potency. With `C[C@@H]1CN2C[C@H]3CCC4=C5[C@@](O)(CC[C@@]56C(=O)[C@@H]1C[C@@H]2[C@@]36C)CC4=O` [DAPHNIYUNNINE D], the IC50 in the assay on A549 was determined as 0.6 µM; with P388, 3 µM.
